Data taken from the NIST ThermoML archive (doi:10.1016/j.jct.2014.07.012).

Assay: mn = molality of the nth substance listed, in mol/kg
Settings: 100 kPa, Liquid; for speed of sound: Frequency=3 MHz, Sing-around technique in a fixed-path interferometer; for mass density: Vibrating tube method

CCCNC(N)=O [N-propylurea] + O
Settings | mass density, 288.15 K [kg/m3] | mass density, 293.15 K [kg/m3] | mass density, 298.15 K [kg/m3] | mass density, 303.15 K [kg/m3] | mass density, 308.15 K [kg/m3] | speed of sound, 288.15 K [m/s] | speed of sound, 293.15 K [m/s] | speed of sound, 298.15 K [m/s] | speed of sound, 303.15 K [m/s] | speed of sound, 308.15 K [m/s]
m1 = 0.0494 | 999.566 | 998.653 | 997.48 | 996.069 | 994.44 | – | – | – | – | –
m1 = 0.079 | 999.848 | 998.924 | 997.74 | 996.318 | 994.678 | – | – | – | – | –
m1 = 0.0791 | – | – | – | – | – | 1473.3 | 1488.9 | 1502.6 | 1514.5 | 1524.8
m1 = 0.1089 | 1000.13 | 999.198 | 998.003 | 996.573 | 994.925 | 1475.8 | 1491.1 | 1504.7 | 1516.4 | 1526.5
m1 = 0.1484 | 1000.52 | 999.564 | 998.356 | 996.91 | 995.249 | 1479 | 1494.1 | 1507.4 | 1518.9 | 1528.8
m1 = 0.1983 | 1000.99 | 1000.02 | 998.792 | 997.329 | 995.652 | 1483 | 1497.8 | 1510.8 | 1522 | 1531.7
m1 = 0.249 | 1001.49 | 1000.49 | 999.244 | 997.763 | 996.069 | 1487.1 | 1501.6 | 1514.2 | 1525.2 | 1534.6
m1 = 0.3012 | 1001.99 | 1000.97 | 999.704 | 998.202 | 996.489 | 1491.1 | 1505.3 | 1517.7 | 1528.4 | 1537.5

O [water] + CCCCNC(N)=O
Settings | mass density [kg/m3]
308.15 K, m2 = 0 | 994.065

CCN(CC)C(N)=O [1,1-diethylurea] + O
Settings | mass density, 288.15 K [kg/m3] | mass density, 293.15 K [kg/m3] | mass density, 298.15 K [kg/m3] | mass density, 303.15 K [kg/m3] | mass density, 308.15 K [kg/m3] | speed of sound, 288.15 K [m/s] | speed of sound, 293.15 K [m/s] | speed of sound, 298.15 K [m/s] | speed of sound, 303.15 K [m/s] | speed of sound, 308.15 K [m/s]
m1 = 0.0535 | 999.376 | 998.462 | 997.288 | 995.875 | 994.243 | – | – | – | – | –
m1 = 0.0856 | 999.546 | 998.62 | 997.435 | 996.012 | 994.369 | 1474.9 | 1490.4 | 1503.9 | 1515.7 | 1525.8
m1 = 0.1181 | 999.725 | 998.786 | 997.589 | 996.154 | 994.501 | 1478 | 1493.2 | 1506.6 | 1518.1 | 1528
m1 = 0.1603 | 999.959 | 999.002 | 997.788 | 996.338 | 994.672 | 1482 | 1496.8 | 1509.9 | 1521.2 | 1530.8
m1 = 0.2142 | 1000.27 | 999.288 | 998.052 | 996.585 | 994.898 | 1487 | 1501.4 | 1514.1 | 1525 | 1534.3
m1 = 0.2689 | 1000.59 | 999.586 | 998.328 | 996.837 | 995.135 | 1491.9 | 1506 | 1518.2 | 1528.8 | 1537.8
m1 = 0.3254 | 1000.93 | 999.905 | 998.628 | 997.108 | 995.381 | 1496.9 | 1510.3 | 1522.2 | 1532.6 | 1541.3
